Experimental data: US11319300B2, “Polyfluoro-substituted aromatic heterocyclic derivative, pharmaceutical composition containing same, and applications thereof” (ZHEJIANG UNIVERSITY, priority 2017, dated 2022)
pIC50: −log10 of the molar value. Counter-ions that a name gives are not always drawn. Marks after values point to notes of the source that are not given here.

Tests used:
AKT1/PKBα = biological target: T1, AKT1/PKBα (Homo sapiens, UniProt P31749); assay: Akt1 enzyme inhibitory activity, AKT1/PKBα KinEASE FP Fluorescein Green Assay; type: biochemical; conditions: fluorescence polarization kit assay; read-out: Akt1 IC50 (grade)
T1 construct: purchased
Experimental: (§1) Compound AZD5363 (NCT02208375, NCT02208375, NCT01625286), which have entered the clinical phase II study, was used as a positive control, and the compound was assayed against common tumour cell lines (human ovarian cancer cell line OVCAR-8 and human colon cancer cell line HCT-116) by MTT assay, at the same time, the akt1 enzyme inhibitory activity (IC50) was evaluated using a commercial Akt1 kit.
2) Test method for the inhibitory activity of the compound of the present invention against Akt1 enzyme:
The AKT1/PKBα KinEASE™ FP Fluorescein Green Assay (Kinase Green Fluorescence Detection System) was used to detect the inhibitory activity of the compound on AKT1/PKBα.
Fluorescence polarization detection protein kinase B employs the principle of a competitive reaction: a fluorescently labeled phosphorylated tracer and an unlabeled phosphorylated product produced by the reaction of protein kinase B will compete with the anti-serine antibody for binding. In a reaction mixture […], when a part of the fluorescent tracer binds to the antibody, it causes a higher polarization value. However, in the reaction solution mixture containing the phosphorylated product, less tracer binds to the antibody (the fluorescent tracer was replaced from the antibody) and the emitted signal was depolarized. Therefore, the change in polarization was directly related to the activity of protein kinase B in the reaction.
The compound of the present invention and the positive control AZD5363 were dissolved in dimethyl sulfoxide (DMSO) and diluted to a concentration of 50 μM. At room temperature, 0.25 μl of the compound sample and the positive control at a concentration of 50 μM were taken and added to the 384-well plate, and three parallel wells were set for each sample, and then 10 μl of STK Substrate 3, Working Solution, 5 μl AKT1/PKBα Working Solution, 10 μl ATP Working Solution were added to each sample well plate with vibrating gently and shaking for a few minutes. The reaction starts after 10 μl of ATP Working Solution was added to the well, and the reaction was timed at room temperature for 1 hour. After one hour, 5 μl of STK Stop Mix and 5 μl of STK Antibody Mix were added to each well respectively to stop the reaction. After the addition completes, it was allowed to stand at room temperature for four hours, and the polarization value of the sample was detected by the fluorescence polarization of the microplate reader (it was effective to detect its signal within 24 hours), and the inhibition rate of the compound was calculated by the polarization value, and then IC50 was calculated.
Four sets of controls were set in the experiment, namely Buffer Control Wells, Tracer Control Wells, No Enzyme Wells, and a blank dimethyl sulfoxide control. The resulting data was used to calculate the inhibition rate.
The activity of the compound was divided into three grades according to the size of the IC50 of the Akt inhibitory activity: “+++”, 1 nM<IC50<10 nM; “++”, 10 nM<IC50<50 nM; “+”, 50 nM<IC50.

HGC27 = assay: Tumour cell proliferation inhibition, MTT assay, HGC27; type: cell-based, human
HCT-116 = assay: Tumour cell proliferation inhibition, MTT assay, HCT-116; type: cell-based, human
Experimental: as §1
1) The pharmacological test method for the tumour cell proliferation inhibiting activity of the compound of the present invention was as follows:
The first was the determination of in vitro tumour growth inhibitory activity and the preliminary structure-activity relationship study, and different solid tumour cell lines were used to determine the in vitro antitumour activity of the synthesized compounds.
Experimental materials: cell lines: human ovarian cancer cells (OVCAR8), colon adenocarcinoma cells (HCT-116),
Medium: OVCAR8: RPMI 1640+fetal calf serum
Drug preparation method: dissolving the drug in DMSO to make a 50 mM of stock solution, and diluting it to a certain ratio to obtain 5 different concentrations.
Tumour Cells being Cultured In Vitro:
The selected tumour cells were incubated in a, 5% of CO2 cell incubator at 37° C., and passaged until the cell density was 70 to 90% (the adherent cells were passaged with Duck's EDTA) and used for subsequent experiments.
The compound was dissolved in dimethyl sulfoxide (DMSO), diluted, and tumour cells were seeded into 4000 cells/200 μL/well in 96-well plates, and 1 μL of compound was added to each well to a final concentration of 50 μM, 10 μM, 2 μM, and 0.4 μM. 0.08 μM were incubated in a, 5% of CO2 cell incubator at 37° C. for 72 hours with DMSO (1%) as a blank control.
The calculation formula of the cell inhibition rate is: cell inhibition rate %=(control group OD value−drug group OD value)/control cell OD value×100%, and the half inhibition concentration (IC50) was determined by the Bliss method.

CEM-C1 = assay: Tumour cell proliferation inhibition, MTT assay, CEM-C1; type: cell-based, human
786-O = assay: Tumour cell proliferation inhibition, MTT assay, 786-O; type: cell-based, human
MCF-7 = assay: Tumour cell proliferation inhibition, MTT assay, MCF-7; type: cell-based, human
[1] = tested on: human gastric cancer HGC27 nude mice xenografts; assay: In vivo antitumour activity, human gastric cancer HGC27 nude mice xenografts; conditions: HGC27 xenograft, 50 mg/kg intragastric once a day
Experimental: A Sixty-Fifth Embodiment: In Vivo Antitumour Activity of Compounds
1) Establishment of a nude mouse xenograft model: 1×10^7 test tumour cells were injected into the armpit of nude mice, after three generations, HGC27 mouse tumour blocks were dissected and placed in a glass dish containing physiological saline, after the necrotic area was removed by incision, the tumour mass was cut into 1-2 mm^3 and inserted into the left axilla of the nude mouse with a trocar.
2) Animal grouping and drug delivery arrangements: after the tumour grows to an average volume of 100-300 mm^3, 20 mice were randomly grouped according to the tumour volume, and the above test animals were given the corresponding test substances by intragastric administration at a dose of 10 mL/kg with once a day.
3) Data measurement and statistics: The tumour volume was weighed and measured twice and dosing period was 21 days. On the 22nd day, after the body weight was weighed and the tumour volume was measured, the nude mice were sacrificed and the tumours were weighed to calculate the relative tumour volume (RTV), relative tumour growth rate (T/C) and tumour inhibition percentage (IR) for statistical testing. The calculation formula was as follows: (a) TV (tumour volume)=½×a×b^2, wherein a and b represent the length and width of the tumour respectively, (b) RTV (relative tumour volume)=Vt/V0, Where V0 is the tumour volume measured at the time of group administration (i.e. d0), Vt is the tumour volume at each measurement, (c) T/C (%)=TRTV/CRTV×100%, wherein TRTV is the RTV of treatment group, CRTV is the RTV of the solvent control group, (d) IR (%)=(1−TWt/TWc)×100%, wherein TWt is the tumour weight of the treatment group, and TWc is the tumour weight of the solvent control group.

T1 sequence (P31749 whole entry): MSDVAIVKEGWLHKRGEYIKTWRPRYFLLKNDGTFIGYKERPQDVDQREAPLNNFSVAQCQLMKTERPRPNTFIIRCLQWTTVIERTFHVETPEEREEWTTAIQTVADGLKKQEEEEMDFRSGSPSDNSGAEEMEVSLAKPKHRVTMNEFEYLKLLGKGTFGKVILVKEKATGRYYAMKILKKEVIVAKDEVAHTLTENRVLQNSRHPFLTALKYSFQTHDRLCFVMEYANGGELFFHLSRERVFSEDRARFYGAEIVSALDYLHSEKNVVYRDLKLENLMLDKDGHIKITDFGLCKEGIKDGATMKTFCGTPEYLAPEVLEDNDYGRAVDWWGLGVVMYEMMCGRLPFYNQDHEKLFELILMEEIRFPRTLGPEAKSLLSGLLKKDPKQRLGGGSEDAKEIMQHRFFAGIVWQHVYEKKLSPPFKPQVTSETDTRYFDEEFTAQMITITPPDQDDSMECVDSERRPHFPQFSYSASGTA

SMILES	pIC50 (AKT1/PKBα)	pIC50 (HGC27; Homo sapiens, HGC-27, 72 h)	pIC50 (HCT-116; Homo sapiens, HCT-116, 72 h)	pIC50 (CEM-C1; Homo sapiens, CEM/C1, 72 h)	pIC50 (786-O; Homo sapiens, 786-0, 72 h)	pIC50 (MCF-7; Homo sapiens, MCF7, 72 h)	further results
Cn1nccc1-c1ccc(C(=O)N[C@@H]2CNCC[C@H]2c2ccc(F)c(F)c2)c(F)c1 [VII-34, D-tartrate]	8.00 to 9.00						pIC50 (HGC27; 72 hours, D-tartrate): 7.52; pIC50 (HCT-116; 72 hours, D-tartrate): 5.67; pIC50 (CEM-C1; 72 hours, D-tartrate): 6.89; pIC50 (786-O; 72 hours, D-tartrate): 5.97; pIC50 (MCF-7; 72 hours, D-tartrate): 5.51
Cn1nccc1-c1ccc(C(=O)N[C@@H]2CNCC[C@H]2c2ccc(F)c(F)c2)c(F)c1 [VII-37, citrate]	8.00 to 9.00						pIC50 (HGC27; 72 hours, citrate): 7.30; pIC50 (HCT-116; 72 hours, citrate): 5.97; pIC50 (CEM-C1; 72 hours, citrate): 6.96; pIC50 (786-O; 72 hours, citrate): 6.17; pIC50 (MCF-7; 72 hours, citrate): 5.87
Cn1nccc1-c1ccc(C(=O)N[C@@H]2CNCC[C@H]2c2ccc(F)c(F)c2)cc1 [drawing 111, reference compound]	7.30 to 8.00	6.72	4.98	6.21	5.69	4.98	
Cn1nccc1-c1ccc(C(=O)N[C@@H]2CNCC[C@H]2c2ccc(F)c(F)c2)cc1 [drawing 115, reference compound]							RTV [1]: 22.60 ± 12.41; T/C(%) [1]: 53.75%; Tumour volume D1 ([1]; D1 (start)): 216 ± 98 mm^3; Tumour volume D22 ([1]; D22): 1650 ± 720* mm^3
Cn1ncc(Cl)c1-c1ccc(C(=O)N[C@@H]2CNCC[C@H]2c2ccc(F)c(F)c2)cc1F [reference compound]	7.30 to 8.00	6.92	5.23	6.24	5.89	5.20	
Cn1ncc(Cl)c1-c1ccc(C(=O)N[C@@H]2CNCC[C@H]2c2ccc(Cl)cc2)c(C(F)(F)F)c1 [reference compound]	8.00 to 9.00	6.74	5.21	6.36	5.52	5.29	
